Here are results for nine molecules from US20090028873A1, “SUBSTITUTED CYCLOHEXANOLS” (AUSPEX PHARMACEUTICALS, INC., priority 2007, published 2009).

Where a name gives a salt, the structure may show the parent alone.

A short description of the data set: In Vitro Human Liver Microsomal (HLM) Stability Assay. It is filed as in vitro ADME. As to conditions: vs non-isotopically enriched drug, 1 μM, 4 mg per mL liver microsome protein, 37° C. On the procedure:
Liver microsomal stability assays are conducted at 4 mg per mL liver microsome protein with an NADPH-generating system in 2% NaHCO3 (2.2 mM NADPH, 25.6 mM glucose 6-phosphate, 6 units per mL glucose 6-phosphate dehydrogenase and 3.3 mM MgCl2). Test compounds are prepared as solutions in 20% acetonitrile-water and added to the assay mixture (final assay concentration 1 μM) and incubated at 37° C. Final concentration of acetonitrile in the assay should be <1%. Aliquots (50 μL) are taken out at times 0, 0.5, 1, 1.5, and 2 hours, and diluted with ice cold acetonitrile (200 μL) to stop the reactions. Samples are centrifuged at 12,000 RPM for 10 min to precipitate proteins. Supernatants are transferred to micro centrifuge tubes and stored for LC/MS/MS analysis of the degradation half-life of the test compounds.
Results of In Vitro Human Liver Microsomal (HLM) Stability Assay
(Liver microsomes are a subcellular fraction often used to study metabolism.)

Turning to `[2H]C([2H])([2H])N(CC1CCCCC1(O)c1cccc(OC)c1)C([2H])([2H])[2H]` (stereo not drawn) [Example 11], the “% increase of HLM degradation half-life 50%-150%” value is recorded as “+ (50%-150%)”.

As to `[2H]C([2H])([2H])Oc1cccc([C@@]2(O)CCCC[C@@H]2CN(C)C)c1` [Example 9, d3-(1R, 2R)-2-(Dimethylaminomethyl)-1-(3-methoxyphenyl)-cyclohexanol hydrochloride], the “% increase of HLM degradation half-life 50%-150%” value is recorded as “+ (50%-150%)”.

Regarding `[2H]C([2H])([2H])N(C[C@H]1CCCC[C@]1(O)c1cccc(OC)c1)C([2H])([2H])[2H]` [Example 12, d6-(1R,2R)-2-(Dimethylaminomethyl)-1-(3-methoxyphenyl)-cyclohexanol hydrochloride], under “column >150%”, the “% increase of HLM degradation half-life >150%” value was “+ (>150%)”.

On to `[2H]O[C@]1(c2c([2H])c([2H])c([2H])c(OC([2H])([2H])[2H])c2[2H])C([2H])([2H])C([2H])([2H])C([2H])([2H])C([2H])([2H])[C@]1([2H])C([2H])([2H])N(C([2H])([2H])[2H])C([2H])([2H])[2H]` [Example 2], for which, where the note is “column −25%-0%”, the “% increase of HLM degradation half-life −25%-0%” value was “+ (−25%-0%)”.

Regarding `COc1cccc(C2(O)CCCCC2CN(C)C)c1` (stereo not drawn) [Example 5, 2-(Dimethylaminomethyl)-1-(3-methoxyphenyl)-cyclohexanol, reference compound], the “% increase of HLM degradation half-life 50%-150%” value was “+ (50%-150%)”.

As for `[2H]C([2H])([2H])Oc1cccc(C2(O)CCCCC2CN(C)C)c1` (stereo not drawn) [Example 8, d3-2-(Dimethylaminomethyl)-1-(3-methoxyphenyl)-cyclohexanol], the “% increase of HLM degradation half-life 0%-50%” value was “+ (0%-50%)”.

Turning to `[2H]c1c([2H])c(O)c([2H])c([C@]2(O)C([2H])([2H])C([2H])([2H])C([2H])([2H])C([2H])([2H])[C@@]2([2H])C([2H])([2H])N(C([2H])([2H])[2H])C([2H])([2H])[2H])c1[2H]` [Example 3], the “% increase of HLM degradation half-life 0%-50%” value is recorded as “+ (0%-50%)”.

For `[2H]O[C@@]1(c2c([2H])c([2H])c([2H])c(OC([2H])([2H])[2H])c2[2H])C([2H])([2H])C([2H])([2H])C([2H])([2H])C([2H])([2H])[C@@]1([2H])C([2H])([2H])N(C([2H])([2H])[2H])C([2H])([2H])[2H]` [Example 1, d25-(−)-(1S,2S)-2-[(Dimethylamino)-methyll-1-(3-methoxyphenyl)-cyclohexanol)], the “% increase of HLM degradation half-life 0%-50%” value is listed as “+ (0%-50%)”.

As to `COc1cccc([C@@]2(O)CCCC[C@@H]2CN(C)C)c1` [Example 6, (1R, 2R)-2-(Dimethylaminomethyl)-1-(3-methoxyphenyl)-cyclohexanol hydrochloride, reference compound], the “% increase of HLM degradation half-life 50%-150%” value is recorded as “+ (50%-150%)”.
